This is an account of results in ChEMBL document CHEMBL3301562, “MMV Box screening against Plasmodium falciparum protein kinases and aminoacyl tRNA synthetases”.

Holding throughout (format): functional
In assay [1] the target is T1, Putative uncharacterized protein pk7 (Plasmodium falciparum, UniProt O96214).
T1 sequence (O96214 whole entry): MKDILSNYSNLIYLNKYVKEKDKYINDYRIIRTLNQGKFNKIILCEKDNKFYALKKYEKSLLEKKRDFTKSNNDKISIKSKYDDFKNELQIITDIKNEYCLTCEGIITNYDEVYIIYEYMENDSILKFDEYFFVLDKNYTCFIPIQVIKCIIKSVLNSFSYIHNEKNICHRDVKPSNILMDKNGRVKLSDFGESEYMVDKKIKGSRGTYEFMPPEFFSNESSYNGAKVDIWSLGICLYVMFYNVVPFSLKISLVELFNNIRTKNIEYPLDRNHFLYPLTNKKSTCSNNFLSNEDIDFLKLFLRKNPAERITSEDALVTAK
In words: Final concentrations were 1 uM ATP, 2 mM DTT, 20 mM MgCl2, 2 mM MnCl2, 0.01% BSA, and 6 ug/ml PK7, in a buffer of 20 mM Tris-HCl (pH 7.5). The enzyme itself was the only substrate present (since autophosphorylation occurs); 100 uM 1NA-PP1 was used as a control inhibitor. Incubation time was 3 hours.

Assay [2] has as its target Calcium-dependent protein kinase 1 (Plasmodium falciparum, UniProt P62344). Description: MMV: CDPK1 Protein kinase inhibition assay using recombinant PfCDPK1, syntide 2 peptide substrate, ATP and KinaseGlo to measure % inhibition at 1 uM MMV box compound. Background: Kinase-Glo reads ATP consumption through a luciferase reaction.
Assay [3] has as its target T2, Mitogen-activated protein kinase (Plasmodium falciparum, UniProt Q25917).
T2 sequence (Q25917 whole entry): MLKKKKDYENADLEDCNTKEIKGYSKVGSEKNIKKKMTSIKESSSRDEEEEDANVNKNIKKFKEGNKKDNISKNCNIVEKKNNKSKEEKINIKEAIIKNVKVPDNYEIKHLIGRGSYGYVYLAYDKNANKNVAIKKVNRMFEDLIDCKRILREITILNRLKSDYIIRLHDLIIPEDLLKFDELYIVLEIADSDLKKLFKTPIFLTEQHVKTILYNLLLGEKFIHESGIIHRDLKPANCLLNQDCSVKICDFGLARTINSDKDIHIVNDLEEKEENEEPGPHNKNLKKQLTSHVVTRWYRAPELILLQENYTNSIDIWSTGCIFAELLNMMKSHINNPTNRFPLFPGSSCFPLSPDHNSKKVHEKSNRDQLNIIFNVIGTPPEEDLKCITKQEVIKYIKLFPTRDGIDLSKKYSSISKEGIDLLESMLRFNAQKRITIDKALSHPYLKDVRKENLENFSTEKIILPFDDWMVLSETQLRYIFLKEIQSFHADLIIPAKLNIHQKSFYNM
Description: Final concentrations were 1 uM ATP, 0.5 mM DTT, 1 mM MgCl2, 0.5 mg/mL BSA, and 10 ug/ml MAP2 in a buffer of 50 mM HEPES (pH 7.0). 0.5 mg/mL histone III-S served as the substrate (13); 100 uM AMP-PNP, an ATP analog, was used as a control inhibitor. Incubation time was 4 hours.

In assay [4] the target is Lysine--tRNA ligase (Plasmodium falciparum (isolate 3D7), UniProt Q8IDJ8). In words: MMV: KRS recombinant Plasmodium falciparum Lysyl-tRNA-synthetase, assay with yeast tRNA, ATP, and lysine and 3 uM MMV malaria box compound, assay read out with kinase glo as % inhibition.
Sequence of Lysine--tRNA ligase (Q8IDJ8 whole entry): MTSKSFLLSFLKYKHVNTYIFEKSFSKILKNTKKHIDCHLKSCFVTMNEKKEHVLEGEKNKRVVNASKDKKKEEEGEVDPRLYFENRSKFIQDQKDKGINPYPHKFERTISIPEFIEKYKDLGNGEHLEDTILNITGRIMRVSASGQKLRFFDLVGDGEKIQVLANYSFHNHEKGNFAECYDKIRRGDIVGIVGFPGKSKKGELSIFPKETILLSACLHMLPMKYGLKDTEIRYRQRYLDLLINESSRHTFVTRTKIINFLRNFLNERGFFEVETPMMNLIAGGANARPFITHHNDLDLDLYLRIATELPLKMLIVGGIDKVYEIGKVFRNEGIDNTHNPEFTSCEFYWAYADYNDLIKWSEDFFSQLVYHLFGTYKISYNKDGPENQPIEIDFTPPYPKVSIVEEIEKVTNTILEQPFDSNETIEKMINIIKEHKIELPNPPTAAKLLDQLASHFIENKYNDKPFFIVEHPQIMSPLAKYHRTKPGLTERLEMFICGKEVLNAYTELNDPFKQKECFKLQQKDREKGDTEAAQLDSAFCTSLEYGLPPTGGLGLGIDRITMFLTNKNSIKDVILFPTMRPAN
Assay [5] concerns the target T3, Cdk-related protein kinase 6 (Plasmodium falciparum, UniProt O77239).
T3 sequence (O77239 whole entry): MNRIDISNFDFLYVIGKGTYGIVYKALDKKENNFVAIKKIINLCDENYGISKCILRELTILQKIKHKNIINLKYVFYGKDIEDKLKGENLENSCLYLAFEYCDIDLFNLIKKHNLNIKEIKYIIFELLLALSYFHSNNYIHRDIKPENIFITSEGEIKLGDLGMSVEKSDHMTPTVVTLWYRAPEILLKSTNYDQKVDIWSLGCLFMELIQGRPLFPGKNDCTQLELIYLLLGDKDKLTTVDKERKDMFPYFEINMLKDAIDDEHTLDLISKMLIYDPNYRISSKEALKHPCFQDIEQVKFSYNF
In words: Final concentrations were 1.5 uM ATP, 5 mM MnCl2, and 15 ug/ml PK6 in a buffer of 100 mM Tris-HCl (pH 7.5). 50 ug/mL MBP was provided as the substrate; 10 uM staurosporine was used as a control inhibitor. Incubation time was 3 hours and 40 minutes.The catalytic activity of each kinase was considered proportional to ATP consumed, as determined from measurements of residual [ATP] with the luciferase-based reagent Kinase-Glo (Promega) following incubation. Luminescence (proportional to residual [ATP]) was measured on the plate readers FLx800 (BioTek Instruments, Winooski, VT, USA) and MicroBeta2.

For assay [6], the target named is T4, Calcium-dependent protein kinase 4 (Plasmodium falciparum (isolate 3D7), UniProt Q8IBS5).
T4 sequence (Q8IBS5 whole entry): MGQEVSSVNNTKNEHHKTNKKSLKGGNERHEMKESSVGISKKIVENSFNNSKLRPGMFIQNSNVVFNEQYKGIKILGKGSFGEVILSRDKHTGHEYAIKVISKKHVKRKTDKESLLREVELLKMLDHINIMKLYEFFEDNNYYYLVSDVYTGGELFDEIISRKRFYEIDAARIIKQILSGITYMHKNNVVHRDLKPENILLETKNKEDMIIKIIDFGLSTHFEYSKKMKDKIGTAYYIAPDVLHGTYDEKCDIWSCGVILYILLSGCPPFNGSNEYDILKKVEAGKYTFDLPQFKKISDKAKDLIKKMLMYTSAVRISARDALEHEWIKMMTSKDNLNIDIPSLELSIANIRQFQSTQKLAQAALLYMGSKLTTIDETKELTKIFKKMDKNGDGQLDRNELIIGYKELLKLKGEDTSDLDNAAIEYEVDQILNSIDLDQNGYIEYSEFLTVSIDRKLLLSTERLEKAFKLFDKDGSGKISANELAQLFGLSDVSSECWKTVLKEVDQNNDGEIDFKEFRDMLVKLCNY
Description: MMV: CDPK4 Protein kinase inhibition assay using recombinant PfCDPK4, syntide2 peptide substrate, ATP and KinaseGlo to measure % inhibition at 1 uM MMV box compound.

Assay [7] concerns the target T5, Proline--tRNA ligase (Plasmodium falciparum (isolate 3D7), UniProt Q8I5R7).
T5 sequence (Q8I5R7 whole entry): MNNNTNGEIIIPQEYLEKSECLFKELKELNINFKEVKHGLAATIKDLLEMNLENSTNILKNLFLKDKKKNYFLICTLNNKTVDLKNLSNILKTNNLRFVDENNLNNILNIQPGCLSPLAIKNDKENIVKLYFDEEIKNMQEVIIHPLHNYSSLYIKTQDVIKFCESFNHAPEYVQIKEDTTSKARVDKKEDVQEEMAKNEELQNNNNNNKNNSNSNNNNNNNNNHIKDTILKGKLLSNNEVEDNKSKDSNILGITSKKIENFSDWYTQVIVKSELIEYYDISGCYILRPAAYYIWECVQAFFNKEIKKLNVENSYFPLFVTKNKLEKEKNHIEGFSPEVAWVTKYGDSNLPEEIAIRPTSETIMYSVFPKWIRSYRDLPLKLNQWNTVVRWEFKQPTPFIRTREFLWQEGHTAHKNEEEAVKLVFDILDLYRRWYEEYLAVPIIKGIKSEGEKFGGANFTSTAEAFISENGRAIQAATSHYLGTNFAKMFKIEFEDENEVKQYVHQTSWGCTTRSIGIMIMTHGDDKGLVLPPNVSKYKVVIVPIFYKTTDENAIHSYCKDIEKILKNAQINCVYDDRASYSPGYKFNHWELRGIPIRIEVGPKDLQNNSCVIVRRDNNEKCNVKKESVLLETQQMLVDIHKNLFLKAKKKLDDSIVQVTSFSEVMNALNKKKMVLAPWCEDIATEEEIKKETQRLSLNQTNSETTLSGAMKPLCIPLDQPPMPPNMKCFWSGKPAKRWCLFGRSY
Description: MMV: ProRS recombinant Plasmodium falciparum Prolyl-tRNA-synthetase, assay with yeast tRNA, ATP, and proline and 3 uM MMV malaria box compound, assay read out with kinase glo as % inhibition.

The structures appear in SMILES notation. pIC50: −log10 of the molar value. Some results are limits rather than exact numbers.

Sequence of Calcium-dependent protein kinase 1 (P62344 whole entry): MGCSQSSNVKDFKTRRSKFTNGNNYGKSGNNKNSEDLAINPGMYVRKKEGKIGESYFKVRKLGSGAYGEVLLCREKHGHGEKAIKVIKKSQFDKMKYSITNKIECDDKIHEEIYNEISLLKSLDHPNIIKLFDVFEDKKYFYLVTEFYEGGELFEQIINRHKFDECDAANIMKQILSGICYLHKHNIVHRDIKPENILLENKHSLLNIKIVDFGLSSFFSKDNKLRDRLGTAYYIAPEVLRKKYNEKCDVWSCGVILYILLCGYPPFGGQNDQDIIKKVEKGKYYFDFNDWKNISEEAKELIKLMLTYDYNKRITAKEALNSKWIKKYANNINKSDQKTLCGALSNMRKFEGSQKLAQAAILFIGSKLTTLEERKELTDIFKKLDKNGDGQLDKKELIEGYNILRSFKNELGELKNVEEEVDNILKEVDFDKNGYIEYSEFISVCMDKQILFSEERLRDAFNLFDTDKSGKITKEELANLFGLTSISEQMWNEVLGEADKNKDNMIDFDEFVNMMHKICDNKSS

As usually defined, the pIC50 is the IC50 on a negative log10 scale, so that one unit is a factor of ten. For the compound `CCOc1ccccc1CNC(=O)C1c2ccccc2C(=O)N(CC(C)C)C1c1cccs1` (stereo not drawn), the pIC50 is under 6.00 in assay [1]; under 6.00 in assay [2]; under 6.00 in assay [3]; under 5.60 in assay [4]; under 6.00 in assay [5]; under 6.00 in assay [6]. For the same compound, the pIC50 in assay [7] was under 5.60.

`Oc1ccc(Br)cc1CN1CCN(Cc2cccc(F)c2)CC1`: the negative-log IC50 (pIC50) in assay [1] is under 6.00; in assay [2] it was under 6.00; in assay [3], under 6.00; in assay [4] it was under 5.60; in assay [5], under 6.00; in assay [6], under 6.00. The negative-log IC50 (pIC50) in assay [7] was under 5.60.

Turning to `OC(CNC1CCCC1)Cn1c2ccccc2c2ccccc21` (stereo not drawn), the negative logarithm of the IC50 (pIC50) in assay [1] was under 6.00; in assay [2], under 6.00; in assay [3] it was under 6.00; in assay [4] it was under 5.60; in assay [5], under 6.00; in assay [6], under 6.00. Also, in assay [7], the negative-log IC50 (pIC50) was under 5.60.

As to `O=C(Nc1ccc(CN2CCOCC2)cc1)c1ccc(-c2ccc(Br)cc2)o1`, the pIC50 is under 6.00 in assay [1]; under 6.00 in assay [2]; under 6.00 in assay [3]; under 5.60 in assay [4]; under 6.00 in assay [5]; under 6.00 in assay [6]. In addition, in assay [7], the pIC50 is under 5.60.

In the case of `CN1C=C(c2ccc3ccccc3n2)C(c2c[nH]c3ccccc23)c2ccccc21` (stereo not drawn), the pIC50 in assay [1] is under 6.00; in assay [2], under 6.00; in assay [3], under 6.00; in assay [4], under 5.60; in assay [5], under 6.00; in assay [6] it was under 6.00. Further, the negative logarithm of the IC50 (pIC50) in assay [7] was under 5.60.

`COc1ccccc1NC1=C(N2CCCCC2)C(=O)c2ccccc2C1=O`: the pIC50 in assay [1] was under 6.00; in assay [2] it was under 6.00; in assay [3], under 6.00; in assay [4] it was under 5.60; in assay [5], under 6.00; in assay [6] it was under 6.00. The pIC50 in assay [7] is under 5.60.

In the case of `c1ccc2c(NCCc3c[nH]c4ccccc34)c3ccccc3nc2c1`, the negative logarithm of the IC50 (pIC50) in assay [1] was under 6.00; in assay [2], under 6.00; in assay [3], under 6.00; in assay [4], under 5.60; in assay [5] it was under 6.00; in assay [6], under 6.00. Besides, the pIC50 in assay [7] is under 5.60.

On to `CCOc1ccc2nc(C)cc(Nc3ccc(Br)cc3)c2c1`, for which the pIC50 in assay [1] was under 6.00; in assay [2], under 6.00; in assay [3] it was under 6.00; in assay [4] it was under 5.60; in assay [5], under 6.00; in assay [6], under 6.00. In addition, the pIC50 in assay [7] was under 5.60.

Take `CCOc1c(Cl)cc(CNC(C)C(O)c2ccccc2)cc1OC` (stereo not drawn): the negative-log IC50 (pIC50) is under 6.00 in assay [1]; under 6.00 in assay [2]; under 6.00 in assay [3]; under 5.60 in assay [4]; under 6.00 in assay [5]; under 6.00 in assay [6]. The pIC50 in assay [7] was under 5.60.

For `CCOc1ccc(CN2CCN(CC(O)COc3ccc(OCC(O)CN4CCN(Cc5ccc(OCC)cc5)CC4)cc3)CC2)cc1` (stereo not drawn), the negative-log IC50 (pIC50) in assay [1] was under 6.00; in assay [2], under 6.00; in assay [3] it was under 6.00; in assay [4], under 5.60; in assay [5] it was under 6.00; in assay [6] it was under 6.00. The negative-log IC50 (pIC50) in assay [7] was under 5.60.

Turning to `CCN(CC)CCNc1ncnc2c1[nH]c1ccc(Br)cc12`, the negative logarithm of the IC50 (pIC50) in assay [1] was under 6.00; in assay [2], under 6.00; in assay [3], under 6.00; in assay [4], under 5.60; in assay [5], under 6.00; in assay [6], under 6.00. The negative logarithm of the IC50 (pIC50) in assay [7] is under 5.60.

On to `COC(=O)c1ccc(C2C3=C(O)CC(c4ccc(F)cc4)CC3=Nc3ccccc3N2C(=O)c2ccccc2)cc1` (stereo not drawn), for which the negative logarithm of the IC50 (pIC50) was under 6.00 in assay [1]; under 6.00 in assay [2]; under 6.00 in assay [3]; under 5.60 in assay [4]; under 6.00 in assay [5]; under 6.00 in assay [6]. For the same compound, in assay [7], the pIC50 is under 5.60.

As for `CCOC(=O)C1CCN(C(=O)CN2C(=O)c3ccccc3C2c2c[nH]c3ccccc23)CC1` (stereo not drawn), the negative-log IC50 (pIC50) in assay [1] was under 6.00; in assay [2], under 6.00; in assay [3], under 6.00; in assay [4], under 5.60; in assay [5], under 6.00; in assay [6], under 6.00. Also, the negative logarithm of the IC50 (pIC50) in assay [7] is under 5.60.

With `N=c1n(CCN2CCCCC2)c2ccccc2n1CC(O)c1cccc(Br)c1` (stereo not drawn), the negative-log IC50 (pIC50) was under 6.00 in assay [1]; under 6.00 in assay [2]; under 6.00 in assay [3]; under 5.60 in assay [4]; under 6.00 in assay [5]; under 6.00 in assay [6]. In addition, in assay [7], the negative-log IC50 (pIC50) is under 5.60.
